In US20040014215A1, “Synchronised arabidopsis cell suspensions and uses thereof” (priority 2000, published 2004):

Tested on: Arabidopsis cell suspension MM2d
Assay: Aphidicolin block/release of MM2d: proportion of G1, S and G2 cells by flow cytometry
Assay type: cell-based, Arabidopsis thaliana
Protocol: The level of synchronicity of the Arabidopsis cell suspension culture MM1 was analysed by flow cytometry. The cell pellet from 5 ml of cell suspension culture was frozen in liquid nitrogen. To analyse the DNA content, the High Resolution Kit for Plant ploidy analysis (Type P) (Partec, Cat. No. 06-5-4004) was used, containing solution A (to release cell nuclei) and solution B (to stain DNA with DAPI). A sample of the frozen cell pellet was transferred into a small petri-dish (5 cm diameter), 150 μl of solution A was added, and the sample was carefully chopped with vertical motion of a sharp razor blade. An additional 150 μl of solution A was added, the cell suspension pipetted up and down for several time before leaving for approximately 2 min at RT. The released cell nuclei were filtered through a 50 μm nylon mesh (Partec, CellTrics 50 μm, Cat. No. 06-4-2317) and 1 ml of solution B was added to the filtrate. On average 8200 particles were counted with a flow cytometer (PASIII; Partec GmbH, Germany), using HBO lamp excitation (Partec, mercury lamp HBO 100 long life, 100W) and detection of emission using a blue filter. Cell cycle phases were analysed using Multicycle for Windows (Phoenix Flow Systems, San Diego, Calif.). Flow cytometry results are not corrected for the mitotic cells (which are not measured by this method).
This experiment was carried out as described for Example 1, except that cell line MM2d was used, and the culture conditions throughout the experiment were as described for MM2d in Example 1.
Synchronisation was performed as described in Example 2A, with the exception that before adding aphidicolin, 20 ml of the weekly subcultured cell suspension was transferred into 100 ml fresh MSS-medium in each of 2 separate flasks and cultivated under conditions as described in Example 1 for MM2d. […] Samples were taken at the same time frame for flow cytometry to follow cell cycle transition.
Samples were analysed by flow cytometry to determine the percentage of cells being in G1-, S- and G2M phase. The mitotic index (MI) and labelling index (LI) were independently determined (as described in Example 2A). Results are shown below in table II and in FIG. 1.
Table II. Aphidicolin block/release of Arabidopsis cell suspension MM2d. Data are shown from analysis of samples obtained in the experiment described in Example 2B.

Structure (SMILES): C[C@@]1(CO)[C@H](O)CC[C@@]2(C)[C@H]1CC[C@H]1C[C@@H]3C[C@@]12CC[C@]3(O)CO [aphidicolin]
- G1 (%) MM2d (0 h after aphidicolin removal): 46.9%
- G2 (%) MM2d (0 h after aphidicolin removal): 16.4%
- S (%) MM2d (0 h after aphidicolin removal): 36.6%
- G1 (%) MM2d (1 h after aphidicolin removal): 16.6%
- G2 (%) MM2d (1 h after aphidicolin removal): 4.9%
- S (%) MM2d (1 h after aphidicolin removal): 78.6%
- G1 (%) MM2d (2 h after aphidicolin removal): 21.5%
- G2 (%) MM2d (2 h after aphidicolin removal): 5.3%
- S (%) MM2d (2 h after aphidicolin removal): 73.2%
- G1 (%) MM2d (3 h after aphidicolin removal): 24.8%
- G2 (%) MM2d (3 h after aphidicolin removal): 11.2%
- S (%) MM2d (3 h after aphidicolin removal): 64.1%
- G1 (%) MM2d (4 h after aphidicolin removal): 18.8%
- G2 (%) MM2d (4 h after aphidicolin removal): 48.2%
- S (%) MM2d (4 h after aphidicolin removal): 33%
- G1 (%) MM2d (5 h after aphidicolin removal): 15.1%
- G2 (%) MM2d (5 h after aphidicolin removal): 74.8%
- S (%) MM2d (5 h after aphidicolin removal): 10.1%
- G1 (%) MM2d (6 h after aphidicolin removal): 12.5%
- G2 (%) MM2d (6 h after aphidicolin removal): 80.6%
- S (%) MM2d (6 h after aphidicolin removal): 6.9%
- G1 (%) MM2d (7 h after aphidicolin removal): 10.5%
- G2 (%) MM2d (7 h after aphidicolin removal): 89.5%
- S (%) MM2d (7 h after aphidicolin removal): 0%
- G1 (%) MM2d (8 h after aphidicolin removal): 9%
- G2 (%) MM2d (8 h after aphidicolin removal): 91%
- S (%) MM2d (8 h after aphidicolin removal): 0%
- G1 (%) MM2d (9 h after aphidicolin removal): 7.6%
- G2 (%) MM2d (9 h after aphidicolin removal): 92.4%
- S (%) MM2d (9 h after aphidicolin removal): 0%
- G1 (%) MM2d (10 h after aphidicolin removal): 10.1%
- G2 (%) MM2d (10 h after aphidicolin removal): 89.6%
- S (%) MM2d (10 h after aphidicolin removal): 0%
- G1 (%) MM2d (11 h after aphidicolin removal): 17.2%
- G2 (%) MM2d (11 h after aphidicolin removal): 82.8%
- S (%) MM2d (11 h after aphidicolin removal): 0%
- G1 (%) MM2d (12 h after aphidicolin removal): 27.7%
- G2 (%) MM2d (12 h after aphidicolin removal): 72.3%
- S (%) MM2d (12 h after aphidicolin removal): 0%
- G1 (%) MM2d (13 h after aphidicolin removal): 32.1%
- G2 (%) MM2d (13 h after aphidicolin removal): 67.9%
- S (%) MM2d (13 h after aphidicolin removal): 0%
- G1 (%) MM2d (14 h after aphidicolin removal): 34.3%
- G2 (%) MM2d (14 h after aphidicolin removal): 65.7%
- S (%) MM2d (14 h after aphidicolin removal): 0%
- G1 (%) MM2d (15 h after aphidicolin removal): 40.7%
- G2 (%) MM2d (15 h after aphidicolin removal): 59.3%
- S (%) MM2d (15 h after aphidicolin removal): 0%
- G1 (%) MM2d (16 h after aphidicolin removal): 34.9%
- G2 (%) MM2d (16 h after aphidicolin removal): 59.4%
- S (%) MM2d (16 h after aphidicolin removal): 5.8%
- G1 (%) MM2d (17 h after aphidicolin removal): 40.8%
- G2 (%) MM2d (17 h after aphidicolin removal): 52%
- S (%) MM2d (17 h after aphidicolin removal): 7.3%
- G1 (%) MM2d (18 h after aphidicolin removal): 40.7%
- G2 (%) MM2d (18 h after aphidicolin removal): 47.9%
- S (%) MM2d (18 h after aphidicolin removal): 11.3%
- G1 (%) MM2d (19 h after aphidicolin removal): 38.4%
- G2 (%) MM2d (19 h after aphidicolin removal): 47.3%
- S (%) MM2d (19 h after aphidicolin removal): 14.4%
- G1 (%) MM2d (20 h after aphidicolin removal): 37.7%
- G2 (%) MM2d (20 h after aphidicolin removal): 45.5%
- S (%) MM2d (20 h after aphidicolin removal): 16.9%
- maximum G2 synchrony (MM2d, flow cytometry): 90%
- maximum S phase synchrony (MM2d, flow cytometry): 79%
